Test [1] has as its system MCF7. In words: Decrease of p53 and KRT19 mRNA expression in human ER positive MCF7 cells by RT-PCR analysis relative to control. It counts as functional, cell-based.
In test [2] the test system is MDA-MB-231. In words: Decrease of CD44 mRNA expression in human ER negative MDA-MB-231 cells by RT-PCR analysis relative to control. It counts as functional, cell-based.
Test [3] has as its system MCF7. In words: Reduction of BAX mRNA expression in human ER positive MCF7 cells by RT-PCR analysis relative to control. It counts as functional.
Test [4] deals with MCF7. In words: Increase of CD44 mRNA expression in human ER positive MCF7 cells by RT-PCR analysis relative to control. It counts as functional.
Another test concerns HepG2. In words: Cytotoxicity against human HepG2 cells assessed as growth inhibition at 10^-5 M after 48 hrs by MTT assay. It counts as functional. The following applies: HepG2, 48 h, read-out: GI. Background: Formazan colour is commonly taken as a measure of viable cells.
Test [5] deals with MDA-MB-231. In words: Reduction of BAX mRNA expression in human ER negative MDA-MB-231 cells by RT-PCR analysis relative to control. Type of test: functional, cell-based.
Test [6] has as its system MDA-MB-231. In words: Decrease of BRAC1 mRNA expression in human ER negative MDA-MB-231 cells by RT-PCR analysis relative to control. Type of test: functional.
For test [7], the system named is MCF7. In words: Decrease of BRAC1 mRNA expression in human ER positive MCF7 cells by RT-PCR analysis relative to control. It counts as functional, cell-based.

Activity calls are given as the source filed them. The rule behind the calls is not given here. Where only a bound is given, the exact number is not on record here.

On to `O=C(Cn1nnnc1-c1ccc2c(c1)OCO2)N/N=C/c1ccc([N+](=O)[O-])cc1`, for which the result in the test with MCF7 [1], with MDA-MB-231 [2], in the test on MCF7 [4], in the test on MDA-MB-231 [5] and in the test on MCF7 [7] was Active. Also, the entries for the “fold change (FC)” value with MCF7 [3] and with MDA-MB-231 [6] were above 2 and 2, respectively. Further, the inhibition of growth at 10 µM with HepG2 was 0%.

`O=C(Cn1nnnc1-c1ccc2c(c1)OCO2)N/N=C/c1cccs1`: the inhibition of growth at 10 µM in the test on HepG2 is 0%.

With `O=C(Cn1nnnc1-c1ccc2c(c1)OCO2)N/N=C/c1ccc(Cl)cc1`, the inhibition of growth at 10 µM with HepG2 stood at 0%.

For the compound `CCOc1ccc(/C=N/NC(=O)Cn2nnnc2-c2ccc3c(c2)OCO3)cc1`, the inhibition of growth at 10 µM in the test with HepG2 came out at 0%.

Regarding `CCOc1ccccc1/C=N/NC(=O)Cn1nnnc1-c1ccc2c(c1)OCO2`, in the test with HepG2, the inhibition of growth at 10 µM worked out at 0%.

Consider `O=C(Cn1nnnc1-c1ccc2c(c1)OCO2)N/N=C/c1ccccc1Cl`, for which the outcome in the test on MCF7 [1], in the test with MDA-MB-231 [2], in the test on MCF7 [4], in the test with MDA-MB-231 [5] and in the test with MCF7 [7] was Active. The results for the “fold change (FC)” value with MCF7 [3] and in the test on MDA-MB-231 [6] were above 2 and 2, respectively. Also, the inhibition of growth at 10 µM in the test with HepG2 was 0%.

For the compound `O=C(Cn1nnnc1-c1ccc2c(c1)OCO2)N/N=C/c1ccco1`, in the test with HepG2, the inhibition of growth at 10 µM was found to be 0%.

For the compound `COc1ccc(/C=N/NC(=O)Cn2nnnc2-c2ccc3c(c2)OCO3)cc1`, in the test with HepG2, the inhibition of growth at 10 µM turned out to be 0%.

Consider `O=C(Cn1nnnc1-c1ccc2c(c1)OCO2)N/N=C/c1ccccc1`, for which, in the test with HepG2, the inhibition of growth at 10 µM amounted to 0%.

`COc1ccc(/C=N/NC(=O)Cn2nnnc2-c2ccc3c(c2)OCO3)c(OC)c1`: the result with MCF7 [1], in the test with MDA-MB-231 [2], in the test on MDA-MB-231 [5] and with MCF7 [7] was Active. The entries for the “fold change (FC)” value in the test on MCF7 [3], with MCF7 [4] and with MDA-MB-231 [6] were above 2, 2 and 2, respectively. In the test with HepG2, the inhibition of growth at 10 µM worked out at 0%.

As to `O=C(Cn1nnnc1-c1ccc2c(c1)OCO2)N/N=C/c1ccccc1[N+](=O)[O-]`, the result in the test on MCF7 [1], with MDA-MB-231 [2], with MDA-MB-231 [5] and in the test with MCF7 [7] was Active. The results for the “fold change (FC)” value in the test with MCF7 [3], in the test on MCF7 [4] and with MDA-MB-231 [6] were above 2, 2 and 2, respectively. Besides, the inhibition of growth at 10 µM in the test with HepG2 worked out at 0%.

On to `O=C(Cn1nnnc1-c1ccc2c(c1)OCO2)N/N=C/c1cccc([N+](=O)[O-])c1`, for which the outcome with MCF7 [1], in the test on MDA-MB-231 [2], in the test on MCF7 [4], with MDA-MB-231 [5] and in the test with MCF7 [7] was Active. Further, the “fold change (FC)” value with MCF7 [3] was above 2; in the test on MDA-MB-231 [6], 2. Also, the inhibition of growth at 10 µM in the test on HepG2 is 0%.

On to `CCc1ccc(/C=N/NC(=O)Cn2nnnc2-c2ccc3c(c2)OCO3)cc1`, for which, in the test with HepG2, the inhibition of growth at 10 µM amounted to 0%.

For the compound `Cc1ccc(/C=N/NC(=O)Cn2nnnc2-c2ccc3c(c2)OCO3)cc1`, the inhibition of growth at 10 µM with HepG2 was 0%.

The values are drawn from ChEMBL document CHEMBL3098100, “Synthesis, characterization and anticancer screening of some novel piperonyl-tetrazole derivatives” (2014).
